Results as given in patent publication US20250346633A1, “MACOLACINS AND METHODS OF USE THEREOF” (priority 2021, published 2025).
Converted amounts (≈) assume the structure as drawn. Where two headings read alike, the source gives them in different places. Bridge positions count the residues as written; N and C are the ends. Square brackets hold non-standard residues; d marks the D form. Peptide text beside a SMILES is read from it. * marks the point of attachment. Benzoyl(4-Ph) = O=C(c1ccc(-c2ccccc2)cc1)*; X1 = CC[C@H](C)CCCCC(=O)*; Dab = NCC[C@H](N)C(=O)O

Tests used:
[1] = system: A. baumannii 0301 with mcr-1; details: colistin R
[2] = system: CRAB, as well as a panel of XDR A. baumannii clinical isolates; details: CRAB and XDR A. baumannii clinical isolates, even when transformed with mcr-1
Method: MIC assays were conducted following the protocol recommended by the Clinical and Laboratory Standards Institute (Testing E C et al., 2016, EUCAST: Växjö; Wikler M A et al., 2006, CLSI (NCCLS), 26: M7-A7). […] Polymyxin B sulfate (Sigma, USA) and colistin sulfate (Sigma, USA) were used as positive controls. […] The top and bottom rows of each plate were filled with 100 μL of LB broth without compound to avoid edge effects. The last well in each row was treated as a negative control. It contained bacteria but no test compounds. A single colony of each assayed bacterial strain was inoculated into 5 mL of LB broth medium and grown overnight at 37° C. (200 rpm). For assays using bacteria containing mcr-1 expression plasmids, the appropriate selection antibiotic was added to keep the plasmid stable (concentrations are listed in Table 5). Saturated overnight cultures were diluted 5,000-fold in fresh LB, and then 50 μL was transferred into individual wells of a 96-well plate.

[3] = mouse, in vivo, sc, 10 mg/kg
Method: (§1) Six-week old CD-1 female mice (20-25 g) were used in pharmacokinetic studies. […] Aliquots of 20 μL of blood were taken by puncture of the lateral tail vein from each mouse (n=2 per route and dose) at 30 minutes, 1, 3, and 5 hours post-dose and captured in CB300 blood collection tubes containing K2EDTA and stored on ice. Plasma was recovered after centrifugation and stored at −80° C. until analyzed by high pressure liquid chromatography coupled to tandem mass spectrometry. […] Standards and QCs were created by adding 10 μL of spiking solutions to 90 μL of drug free plasma (CD-1 K2EDTA Mouse, Bioreclamation IVT). 10 μL of control, standard, QC, or study samples were added to 10 μL of internal standard. […] The compounds were extracted by adding 100 μL of 50% Methanol/50% (10% Trichloroacetic acid in water) precipitation solvent. Extracts were vortexed for 5 minutes and centrifuged at 4,000 rpm for 5 minutes. 75 μL of supernatant was transferred for HPLC-MS/MS analysis and diluted with 75 μL of Milli-Q deionized water. LC-MS/MS analysis was performed on a Sciex Applied Biosystems Qtrap 6500+triple-quadrupole mass spectrometer coupled to a Shimadzu Nexera×2 UHPLC system to quantify each drug in plasma. […] Multiple-reaction monitoring of parent/daughter transitions in electrospray positive-ionization mode was used to quantify the analytes. […]

A. baumannii ATCC17978 [4] = test: CHIR-090 inhibition assay (growth curves); type: cell-based, Acinetobacter baumannii; details: for A. baumannii growth: antibiotic alone at concentrations above MIC; for A. baumannii growth / A. baumannii growth with CHIR-090 included: 48 hours; for A. baumannii growth with CHIR-090 included: antibiotic plus CHIR-090
A. baumannii 0287 = details: mcr-1 −, colistin S
K. pneumoniae 10031 = details: colistin S, n=2
[5] = system: A. baumannii-0301-(mcr-1); test: Neutropenic thigh infection model; type: in vivo, Acinetobacter baumannii; details: neutropenic mouse thigh, 20 mg/kg SC at 6 hour intervals, 24 h
Method: (§2) After 24 hours the bacterial burden in each infected thigh was determined based on colony forming units (CFUs) that arose from homogenized tissue samples.
(§3) Six-week old female outbred Swiss Webster mice (20-25 g) were used for this experiment. Mice were housed in individually ventilated cages (IVC) and maintained in accordance with American Association for Accreditation of Laboratory Care criteria. Acinetobacter baumannii SM1536-(mcr-1) or A. baumannii-0301-(mcr-1) was grown in cation adjusted Mueller Hinton (MH) broth containing 50 μg/mL of gentamycin at 37° C. with shaking overnight. The cultures were centrifuged, supernatant aspirated and the bacteria were gently washed twice in sterile saline. […] All mice were closely monitored post-infection for morbidity. Any abnormal clinical signs were recorded if observed. […] The treatment efficacy was determined both as the bacterial burden reduction in the thighs relative to the vehicle and colistin treated controls. All graphic data are expressed as columnar average data points by group and were statistically analyzed using computer Prism software (Prism 9). Burden differences between testing and control groups was assessed by post-hoc analysis, using the Mann-Whitney comparison test. […]

E. cloacae 0150 = details: colistin S, n=2
[6] = system: A. baumannii SM1536-(mcr-1); test: Neutropenic thigh infection model; type: in vivo, Acinetobacter baumannii; details: neutropenic mouse thigh, 20 mg/kg SC at 6 hour intervals, 24 h
Method: as §2, §3

[7] = system: A. baumannii SM1536 (pMQ124xlab1-mcr-1)
A. baumannii 0295 = details: mcr-1 −, colistin S
[8] = system: A. baumannii ATCC17978 (pMQ124xlab1-mcr-1)
P. aeruginosa PA01 = details: colistin S, n=2
[9] = system: A. baumannii 0295 with mcr-1; details: colistin R
[10] = system: A. baumannii 0287 with mcr-1; details: colistin R
MTT cytotoxicity assay = type: cell-based; details: HEK293, human cells
Method: Compounds with different concentrations were then added into each well. After 48 h of incubation, the media was removed and MTT solution (0.45 mg/mL) was added into each well. After 3 h of incubation, the solution was aspirated. […] The absorbance of each well was measured at OD570nm using a microplate reader (Epoch Microplate Spectrophotometer, BioTek). Taxol was used as the positive control. […] All the experiments were performed triplicates (n=3).

A. baumannii 0286 = details: mcr-1 −, colistin S
[11] = Pharmacokinetics assessment; details: mice; single subcutaneous dose of 10 mg/kg; FIG. 9
Method: as §1

K. pneumoniae ATCC13883 = details: colistin S, mcr-1 engineered pair
A. baumannii 0282 = details: mcr-1 −, colistin S
A. baumannii 0296 = details: mcr-1 −, colistin S
[12] = system: S. typhimurium 0635 (mcr-1 clinical isolate); details: colistin R
A. baumannii SM1536 = details: colistin S
A. baumannii ATCC17978 [13] = system: A. baumannii ATCC17978
[14] = system: K. pneumoniae and A. baumannii; test: MIC upon addition of cell wall components (lipid A, LPS) to the media; type: cell-based, Klebsiella pneumoniae; Acinetobacter baumannii; details: FIG. 3C; n=2
[15] = system: K. pneumoniae ATCC13883 (pMQ124-mcr-1)
[16] = system: K. pneumoniae 0497 (mcr-1 clinical isolate); details: colistin R
E. faecium Com15 = details: colistin R, n=2
[17] = system: E. cloacae ATCC13047 (ΔphoP/Q + phoP/Q); details: colistin R
Method: (§4) MIC assays were conducted following the protocol recommended by the Clinical and Laboratory Standards Institute (Testing E C et al., 2016, EUCAST: Växjö; Wikler M A et al., 2006, CLSI (NCCLS), 26: M7-A7). […] Polymyxin B sulfate (Sigma, USA) and colistin sulfate (Sigma, USA) were used as positive controls. […] The top and bottom rows of each plate were filled with 100 μL of LB broth without compound to avoid edge effects. The last well in each row was treated as a negative control. It contained bacteria but no test compounds. A single colony of each assayed bacterial strain was inoculated into 5 mL of LB broth medium and grown overnight at 37° C. […] Saturated overnight cultures were diluted 5,000-fold in fresh LB, and then 50 μL was transferred into individual wells of a 96-well plate.

S. aureus SH1000 = details: colistin R, n=2
[18] = system: E. cloacae ATCC13047 (ΔphoP/Q)
Method: as §4

Gram−positive pathogens = test: MIC against ESKAPE pathogens; type: cell-based; details: highest concentration tested 128 μg/mL
[19] = system: K. pneumoniae and A. baumannii transformed with a plasmid expressing mcr-1; type: cell-based, Klebsiella pneumoniae; Acinetobacter baumannii
[20] = A. baumannii SM1536 (pMQ124xlab1-mcr-1), colistin R
[21] = extremely highly colistin resistant A. baumannii
[22] = A. baumannii ATCC17978, colistin S, mcr-1 engineered pair

CC[C@H](C)[C@@H]1NC(=O)[C@@H](CC(C)C)NC(=O)[C@H](CCN)NC(=O)[C@@H](NC(=O)[C@@H](CO)NC(=O)[C@@H](NC(=O)[C@H](CCN)NC(=O)c2ccc(-c3ccccc3)cc2)[C@@H](C)O)CCNC(=O)[C@H](CC(C)C)NC(=O)[C@H](CCN)NC(=O)[C@H](CCN)NC1=O [Biphenyl-macolacin] ({Benzoyl(4-Ph)}-[Dab]T[dS][Dab][Dab][dL]I[Dab][Dab]L; lactam 4-C)
Antibiotic MIC [1]: 1 µg/mL | Antibiotic MIC ([1]; listed as biphenyl-macolacin): < 2 µg/mL | MICs [2]: < 2 µg/mL | MIC (Proteus vulgaris): 4 µg/mL (≈ 3.31 µM) | plasma drug exposure (pharmacokinetic profile) [3]: parity in plasma drug exposure | Antibiotic MIC (A. baumannii 0301; 0301): 0.5 µg/mL

C[C@@H](O)[C@H](NC(=O)c1ccc(C#Cc2ccc(CN3CCOCC3)cc2)cc1)C(=O)NO [CHIR-090]
A. baumannii growth, CHIR-090 alone (A. baumannii ATCC17978 [4]; CHIR-090 alone): did not inhibit A. baumannii growth

CC[C@H](C)CCCCC(=O)N[C@@H](CCN)C(=O)N[C@H](C(=O)N[C@@H](CCN)C(=O)N[C@H]1CCNC(=O)[C@H]([C@@H](C)O)NC(=O)[C@H](CCN)NC(=O)[C@H](CCN)NC(=O)[C@H](CC(C)C)NC(=O)[C@@H](CC(C)C)NC(=O)[C@H](CCN)NC1=O)[C@@H](C)O [Colistin, colistin] (X1-[Dab]T[Dab][Dab][Dab][dL]L[Dab][Dab]T; lactam 4-C)
A. baumannii growth (A. baumannii ATCC17978 [4]): completely abrogated A. baumannii growth | A. baumannii growth with CHIR-090 included (A. baumannii ATCC17978 [4]): rescued A. baumannii growth | Antibiotic MIC (A. baumannii 0287): 0.5 µg/mL | MIC (K. pneumoniae 10031): 0.5 µg/mL (≈ 0.428 µM) | bacterial burden in infected thighs [5]: did not reduce the bacterial burden below the level of the initial infection | Antibiotic MIC [1]: >128 µg/mL | Antibiotic MIC ([1]; listed as colistin): > 64 µg/mL | MIC (E. cloacae 0150): 1 µg/mL (≈ 0.855 µM) | bacterial burden in infected thighs [6]: did not reduce the bacterial burden below the level of the initial infection | MIC [7, 20]: 128 µg/mL (≈ 109 µM) | MIC [7, 21]: > 128 µg/mL | Antibiotic MIC (A. baumannii 0295): 0.25 µg/mL | MIC ([8]; ATCC17978): 32 µg/mL (≈ 27.4 µM) | MIC (P. aeruginosa PA01): 1 µg/mL (≈ 0.855 µM) | Antibiotic MIC [9]: >128 µg/mL | Antibiotic MIC [10]: 64 µg/mL | IC50 at 48 h (MTT cytotoxicity assay): > 512 µg/mL | Antibiotic MIC (A. baumannii 0286): 1 µg/mL | plasma drug exposure (pharmacokinetic profile) [11]: parity in plasma drug exposure | MIC (K. pneumoniae ATCC13883): 1 µg/mL (≈ 0.855 µM) | Antibiotic MIC (A. baumannii 0282): 0.5 µg/mL | Antibiotic MIC (A. baumannii 0301; A. baumannii 0301, mcr-1 −, colistin S): 0.25 µg/mL | Antibiotic MIC (A. baumannii 0296): 0.25 µg/mL | MIC [12]: 16 µg/mL (≈ 13.7 µM) | MIC (A. baumannii SM1536): 0.5 µg/mL (≈ 0.428 µM) | MIC (A. baumannii ATCC17978 [13]; [22]): 1 µg/mL (≈ 0.855 µM) | change of MIC on addition of lipid A or lipopolysaccharide (LPS) to the assay media [14]: significant increase | MIC ([15]; ATCC13883): 64 µg/mL (≈ 54.7 µM) | MIC [16]: 32 µg/mL (≈ 27.4 µM) | MIC (E. faecium Com15): >128 µg/mL | MIC [17]: 32 µg/mL (≈ 27.4 µM) | MIC ([17]; listed as colistin): resistant | MIC (S. aureus SH1000): >128 µg/mL | MIC [18]: 1 µg/mL (≈ 0.855 µM)

CC[C@H](C)CCCCC(=O)N[C@@H](CCN)C(=O)N[C@H](C(=O)N[C@H](CO)C(=O)N[C@H]1CCNC(=O)[C@H](CC(C)C)NC(=O)[C@H](CCN)NC(=O)[C@H](CCN)NC(=O)[C@H]([C@@H](C)CC)NC(=O)[C@@H](CC(C)C)NC(=O)[C@H](CCN)NC1=O)[C@@H](C)O [Macolacin] (X1-[Dab]T[dS][Dab][Dab][dL]I[Dab][Dab]L; lactam 4-C)
A. baumannii growth (A. baumannii ATCC17978 [4]): completely abrogated A. baumannii growth | A. baumannii growth with CHIR-090 included (A. baumannii ATCC17978 [4]): rescued A. baumannii growth | MIC [7, 21]: 8 µg/mL (≈ 6.85 µM) | activity against Gram−positive pathogens (Gram−positive pathogens): no activity | MIC [8]: 2 µg/mL (≈ 1.71 µM) | increase in MIC upon mcr-1 expression [19]: 2- to 4 fold | Antibiotic MIC (A. baumannii 0301; 0301): 0.5 µg/mL | change of MIC on addition of lipid A or lipopolysaccharide (LPS) to the assay media [14]: significant increase | MIC [17]: 2 µg/mL (≈ 1.71 µM)

Polymyxin B
MIC (K. pneumoniae 10031): 1 µg/mL | MIC (E. cloacae 0150): 1 µg/mL | MIC [7, 20]: 128 µg/mL | MIC [8]: 16 µg/mL | MIC (P. aeruginosa PA01): 2 µg/mL | MIC (K. pneumoniae ATCC13883): 1 µg/mL | MIC [12]: 16 µg/mL | MIC (A. baumannii SM1536): 1 µg/mL | MIC (A. baumannii ATCC17978 [13]): 0.5 µg/mL | MIC (A. baumannii ATCC17978 [13]; [22]): 0.5 µg/mL | MIC [15]: 128 µg/mL | MIC [16]: 32 µg/mL | MIC (E. faecium Com15): >128 µg/mL | MIC [17]: 32 µg/mL | MIC ([17]; listed as polymyxin B): resistant | MIC (S. aureus SH1000): >128 µg/mL | MIC [18]: 1 µg/mL
